Source: ChEMBL document CHEMBL1201862, “PubChem BioAssay data set” (2004)
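Assay format: 96-well plates, 48-hour exposure. GI50: concentration for 50% inhibition of growth.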 Activity calls are given as the source filed them. No stated cut-off is given here; in the data, active = GI50 up to about 1.1 µM and inactive = higher.

Key:
Experiment in all cases: growth of human tumour cells (NCI), 48 h
KM-20L2 = test system: KM-20L2
DMS-114 = test system: DMS-114
SNB-78 = test system: SNB-78
DLD-1 = test system: DLD-1
RXF 631 = test system: RXF 631
LXFL 529 = test system: LXFL 529
DMS-273 = test system: DMS-273
HOP-18 = test system: HOP-18
M19-MEL = test system: M19-MEL

Row | Structure (SMILES) | GI50 (KM-20L2) | GI50 (DMS-114) | GI50 (SNB-78) | GI50 (DLD-1) | GI50 (RXF 631) | GI50 (LXFL 529) | GI50 (DMS-273) | GI50 (HOP-18) | GI50 (M19-MEL)
1 | CC1=Nc2ccccc2C12C(c1ccccc1)C(c1ccccc1)C(=O)N1c3ccccc3CC12 (configuration not stated) | > 100 µM (inactive) | > 100 µM (inactive) | > 100 µM (inactive) | > 100 µM (inactive) | > 100 µM (inactive) | > 100 µM (inactive) | > 100 µM (inactive) |  | 
2 | CCOC(=O)C1C(=O)CN2CCc3c([nH]c4ccccc34)C12C(=O)OCC (configuration not stated) | > 100 µM (inactive) | > 100 µM (inactive) | > 100 µM (inactive) | > 100 µM (inactive) | > 100 µM (inactive) | > 100 µM (inactive) | > 100 µM (inactive) | 72.8 µM (inactive) | > 100 µM (inactive)
3 | CC1(C)C2CCC3(OCCO3)C1C1OC12 (configuration not stated) | > 100 µM (inactive) |  | > 100 µM (inactive) |  | > 100 µM (inactive) |  | > 100 µM (inactive) | 45.6 µM (inactive) | 
4 | CN=S(=O)(C[C@]1(O)CC2OC1C1OC(C)(C)OC21)c1ccccc1 (some centres not stated) | > 100 µM (inactive) | > 100 µM (inactive) | > 100 µM (inactive) |  |  | > 100 µM (inactive) | > 100 µM (inactive) |  | > 100 µM (inactive)
5 | O=S(=O)(N/N=C/c1c(Cl)cccc1Cl)c1ccccc1 | > 100 µM (inactive) | > 100 µM (inactive) | > 100 µM (inactive) | > 100 µM (inactive) | > 100 µM (inactive) | > 100 µM (inactive) | > 100 µM (inactive) | > 100 µM (inactive) | > 100 µM (inactive)
6 | CC#C[C@@]1(O)CCCC[C@@H]1O | > 100 µM (inactive) | > 100 µM (inactive) | > 100 µM (inactive) |  | > 100 µM (inactive) |  | > 100 µM (inactive) | > 100 µM (inactive) | > 100 µM (inactive)
7 | COc1ccc(CCC2NCCc3cc(OC)c(OC)cc32)cc1 (configuration not stated) | > 100 µM (inactive) |  | 79.8 µM (inactive) | > 100 µM (inactive) |  | > 100 µM (inactive) |  | > 100 µM (inactive) | 
8 | Cc1ccc(NC(=O)/C(=N\Nc2ccc([N+](=O)[O-])cc2[N+](=O)[O-])C2C(=O)NC(=O)NC2=O)cc1 | 15.4 µM (inactive) | 49.2 µM (inactive) | > 100 µM (inactive) | 21.1 µM (inactive) | > 100 µM (inactive) | 13.3 µM (inactive) |  | > 100 µM (inactive) | > 100 µM (inactive)
9 | O=C1/C(=C/c2ccccc2)CN(C(=O)C(Cl)(Cl)Cl)C/C1=C\c1ccccc1 | 2.16 µM (inactive) | 1.6 µM (inactive) | 2.72 µM (inactive) | 1.96 µM (inactive) |  | 1.59 µM (inactive) | 1.06 µM (active) | 2.96 µM (inactive) | 1.33 µM (inactive)
10 | C[C@@H]1O[C@]2(O)[C@@H]3CCCN3S(=O)(=O)CCN2C1=O | > 100 µM (inactive) |  | > 100 µM (inactive) | > 100 µM (inactive) | > 100 µM (inactive) | > 100 µM (inactive) |  | > 100 µM (inactive) | > 100 µM (inactive)
11 | C/C=C/C(C#N)O[Si](C)(C)C (configuration not stated) | > 100 µM (inactive) | > 100 µM (inactive) | > 100 µM (inactive) | > 100 µM (inactive) |  | > 100 µM (inactive) | > 100 µM (inactive) | > 100 µM (inactive) | > 100 µM (inactive)
12 | C/C(=C/c1c(C)[nH]c(=O)[nH]c1=O)C(=O)O | > 1370 µM (inactive) | > 1370 µM (inactive) | > 1370 µM (inactive) | > 1370 µM (inactive) |  |  | > 1370 µM (inactive) | > 1370 µM (inactive) | > 1370 µM (inactive)
13 | CCCSc1nc(COC(=O)NC)c(COC(=O)NC)n1C | > 100 µM (inactive) | 38.7 µM (inactive) | > 80.5 µM (inactive) |  |  |  | > 95.5 µM (inactive) | > 100 µM (inactive) | > 95.1 µM (inactive)
14 | CC(=O)c1cccc(NC(=O)C(=O)C(C(=O)c2ccccc2F)C2OC(=O)c3ccccc32)c1 (configuration not stated) | 40.2 µM (inactive) | 31 µM (inactive) | 12.5 µM (inactive) | 45.8 µM (inactive) | 21.1 µM (inactive) | 44 µM (inactive) | 34 µM (inactive) |  | 23.1 µM (inactive)
15 | N#CN=C(N(Cc1ccccc1)Cc1ccccc1)N(Cc1ccccc1)Cc1ccccc1 | 16.4 µM (inactive) | 4.85 µM (inactive) | > 100 µM (inactive) | 5.18 µM (inactive) |  | 3.89 µM (inactive) |  | > 100 µM (inactive) | 25.5 µM (inactive)
16 | CN(/N=C/c1cccc2cccnc12)c1ccc([N+](=O)[O-])cc1[N+](=O)[O-] | > 100 µM (inactive) | 20.2 µM (inactive) | 18.4 µM (inactive) | 44.7 µM (inactive) | 36.1 µM (inactive) | > 100 µM (inactive) | 34.4 µM (inactive) | > 100 µM (inactive) | > 78 µM (inactive)
17 | Cc1ccc(-c2nnc3s/c(=C\c4ccc(N(C)C)cc4)c(=O)n23)cc1 | > 100 µM (inactive) | > 100 µM (inactive) | > 100 µM (inactive) | > 100 µM (inactive) | > 100 µM (inactive) | > 100 µM (inactive) | > 100 µM (inactive) | > 100 µM (inactive) | > 100 µM (inactive)
18 | O=C1/C(=C/c2ccccc2)CCC/C1=C\c1ccccc1 [2,6-DIBENZYLIDENECYCLOHEXANONE] | 8.79 µM (inactive) | 9.68 µM (inactive) | 17.5 µM (inactive) | 3.04 µM (inactive) | 17.7 µM (inactive) | 4.5 µM (inactive) | 8.04 µM (inactive) | 19.5 µM (inactive) | 1.97 µM (inactive)
19 | O=C(c1cccs1)N(C(=S)N1CCN(c2ccccc2)CC1)c1ccccc1 | > 100 µM (inactive) | > 100 µM (inactive) | > 100 µM (inactive) | > 100 µM (inactive) |  | > 100 µM (inactive) | > 100 µM (inactive) | > 100 µM (inactive) | > 100 µM (inactive)
